Results as given in US10022352B2, “Modulators of ATP-binding cassette transporters” (Vertex Pharmaceuticals Incorporated, priority 2006, dated 2018).
pEC50: −log10 of the molar value. Where two headings read alike, the source gives them in different places.

Legend:
[1] = biological target: ΔF508-CFTR (Homo sapiens (Human), UniProt P13569, DEL508-508); test: Membrane potential optical assay, identification of correction compounds; type: cell-based
Description: Membrane potential optical methods for assaying ΔF508-CFTR modulation properties of compounds.
The assay utilizes fluorescent voltage sensing dyes to measure changes in membrane potential using a fluorescent plate reader (e.g., FLIPR II, Molecular Devices, Inc.) as a readout for increase in functional ΔF508-CFTR in NIH 3T3 cells. The driving force for the response is the creation of a chloride ion gradient in conjunction with channel activation by a single liquid addition step after the cells have previously been treated with compounds and subsequently loaded with a voltage sensing dye.
Identification of Correction Compounds
To identify small molecules that correct the trafficking defect associated with ΔF508-CFTR; a single-addition HTS assay format was developed. Assay Plates containing cells are incubated for ˜2-4 hours in tissue culture incubator at 37° C., 5% CO2, 90% humidity. Cells are then ready for compound exposure after adhering to the bottom of the assay plates.
The cells were incubated in serum-free medium for 16-24 hrs in tissue culture incubator at 37° C., 5% CO2, 90% humidity in the presence or absence (negative control) of test compound. The cells were subsequently rinsed 3× with Krebs Ringers solution and loaded with a voltage sensing redistribution dye. To activate ΔF508-CFTR, 10 μM forskolin and the CFTR potentiator, genistein (20 μM), were added along with Cl^−-free medium to each well. The addition of Cl^−-free medium promoted Cl^− efflux in response to ΔF508-CFTR activation and the resulting membrane depolarization was optically monitored using voltage sensor dyes.
Bath #1: (in mM) NaCl 160, KCl 4.5, CaCl2 2, MgCl2 1, HEPES 10, pH 7.4 with NaOH.
free bath solution: Chloride salts in Bath Solution #1 are substituted with gluconate salts.
NIH3T3 fibroblasts stably expressing ΔF508-CFTR are used for optical measurements of membrane potential. The cells are maintained at 37° C. in 5% CO2 and 90% humidity in Dulbecco's modified Eagle's medium supplemented with 2 mM glutamine, 10% fetal bovine serum, 1×NEAA, β-ME, 1× pen/strep, and 25 mM HEPES in 175 cm^2 culture flasks. For all optical assays, the cells were seeded at ˜20,000/well in 384-well matrigel-coated plates and cultured for 2 hrs at 37° C. before culturing at 27° C. for 24 hrs. for the potentiator assay. For the correction assays, the cells are cultured at 27° C. or 37° C. with and without compounds for 16-24 hours. Electrophysiological Assays for assaying ΔF508-CFTR modulation properties of compounds.

[2] = Solubility in water; type: physicochemical

Chain of ΔF508-CFTR (P13569 other isoform, or with tags, fused parts or gaps del F508-F508): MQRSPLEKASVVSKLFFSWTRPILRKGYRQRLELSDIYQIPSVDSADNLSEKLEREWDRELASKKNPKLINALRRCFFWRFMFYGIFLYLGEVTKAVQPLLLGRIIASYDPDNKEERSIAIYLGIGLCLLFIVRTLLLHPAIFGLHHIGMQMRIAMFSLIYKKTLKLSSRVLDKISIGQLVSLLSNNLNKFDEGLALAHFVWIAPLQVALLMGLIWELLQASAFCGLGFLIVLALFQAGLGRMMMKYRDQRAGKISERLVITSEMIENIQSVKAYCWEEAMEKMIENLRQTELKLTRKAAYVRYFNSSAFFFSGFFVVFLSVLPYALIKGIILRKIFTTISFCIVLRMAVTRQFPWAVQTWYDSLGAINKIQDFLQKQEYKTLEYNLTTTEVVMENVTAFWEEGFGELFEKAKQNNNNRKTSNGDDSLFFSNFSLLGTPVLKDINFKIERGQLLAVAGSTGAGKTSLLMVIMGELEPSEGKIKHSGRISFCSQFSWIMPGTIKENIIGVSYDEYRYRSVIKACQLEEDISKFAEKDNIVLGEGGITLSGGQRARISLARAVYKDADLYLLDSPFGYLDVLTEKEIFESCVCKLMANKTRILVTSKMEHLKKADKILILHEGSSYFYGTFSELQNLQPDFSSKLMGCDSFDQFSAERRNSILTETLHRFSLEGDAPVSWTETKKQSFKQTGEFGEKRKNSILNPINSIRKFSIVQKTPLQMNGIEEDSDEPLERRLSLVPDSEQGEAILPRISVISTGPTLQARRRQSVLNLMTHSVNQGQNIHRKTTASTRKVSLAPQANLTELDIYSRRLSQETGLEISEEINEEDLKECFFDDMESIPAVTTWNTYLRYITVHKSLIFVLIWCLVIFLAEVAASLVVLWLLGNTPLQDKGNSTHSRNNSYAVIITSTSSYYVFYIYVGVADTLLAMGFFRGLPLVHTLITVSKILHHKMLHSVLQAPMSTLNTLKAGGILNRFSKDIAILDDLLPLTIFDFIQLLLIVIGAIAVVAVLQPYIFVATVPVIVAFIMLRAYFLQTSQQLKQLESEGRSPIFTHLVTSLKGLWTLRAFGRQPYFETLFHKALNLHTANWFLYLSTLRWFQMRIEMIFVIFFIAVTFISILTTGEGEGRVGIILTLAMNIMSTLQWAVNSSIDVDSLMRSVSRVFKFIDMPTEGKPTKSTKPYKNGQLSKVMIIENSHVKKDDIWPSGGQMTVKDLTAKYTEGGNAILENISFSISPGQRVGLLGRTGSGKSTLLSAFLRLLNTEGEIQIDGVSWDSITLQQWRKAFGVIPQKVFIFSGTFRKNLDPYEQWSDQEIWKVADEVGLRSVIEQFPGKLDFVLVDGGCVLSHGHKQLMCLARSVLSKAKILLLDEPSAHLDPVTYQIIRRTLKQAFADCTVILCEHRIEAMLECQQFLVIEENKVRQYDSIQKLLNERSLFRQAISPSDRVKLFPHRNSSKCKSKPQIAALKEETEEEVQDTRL

Compound	pEC50 ([1]; read-out: Binned EC50)	Emax ([1]; read-out: Binned Max Efficacy) [%]	pEC50 ([1]; read-out: EC50)	Emax ([1]; read-out: Max Efficacy) [%]	Binned Max Efficacy [1]	Max Efficacy [1] [%]	solubility [2] [µg/mL]
CN(C)CCn1c(C(C)(C)C)cc2cc(NC(=O)C3(c4ccc5c(c4)OC(F)(F)O5)CC3)c(F)cc21 [Compound 309]	> 5.70	–	7.42	–	+++ (“+++” means >100%)	122	–
CC(C)(C)c1cc2cc(NC(=O)C3(c4ccc5c(c4)OCO5)CC3)c(F)cc2n1C[C@@H](O)CO [Compound 310]	> 5.70	–	6.80	–	+++ (“+++” means >100%)	120.5	–
CC(C)(C)c1cc2c(C#N)c(NC(=O)C3(c4ccc5c(c4)OC(F)(F)O5)CC3)ccc2n1CCO [Compound 312]	> 5.70	> 100	6.74	118	–	–	–
CC1(C)CCn2c1cc1cc(NC(=O)C3(c4ccc5c(c4)OC(F)(F)O5)CC3)c(F)cc12 [Compound 314]	> 5.70	> 100	6.64	124	–	–	–
CC(C)(CCOC[C@@H](O)CO)c1cc2cc(NC(=O)C3(c4ccc5c(c4)OC(F)(F)O5)CC3)c(F)cc2[nH]1 [Compound 316]	> 5.70	> 100	6.55	126	–	–	–
COc1ccc(C2(C(=O)Nc3ccc4[nH]c(C(C)(C)C)cc4c3)CC2(C)C)cc1 (stereo not shown) [Compound 317]	5.30 to 5.70	25 to 100	5.34	65.5	–	–	–
CC(C)(C)c1cc2cc(NC(=O)C3(c4ccc(O)c(O)c4)CC3)ccc2n1C[C@@H](O)CO [Compound 321]	> 5.70	25 to 100	5.74	76	–	–	–

Further lines, results first:

pEC50 ([1]; read-out: Binned EC50)	Emax ([1]; read-out: Binned Max Efficacy) [%]	pEC50 ([1]; read-out: EC50)	Emax ([1]; read-out: Max Efficacy) [%]	Binned Max Efficacy [1]	Max Efficacy [1] [%]	solubility [2] [µg/mL]	Compound
> 5.70	> 100	6.01	160	–	–	–	CC(C)(C)c1cc2cc(NC(=O)C3(c4ccc5c(c4)CCC5)CC3)ccc2n1C[C@@H](O)CO [Compound 307]
5.30 to 5.70	> 100	5.51	100	–	–	–	CC(C)(CCOC[C@@H](O)CO)c1cc2cc(NC(=O)C3(c4ccc5c(c4)OC(F)(F)O5)CC3)c(F)cc2n1C[C@@H](O)CO [Compound 308]
> 5.70	> 100	7.09	126	–	–	–	CC(C)(CCO)c1cc2cc(NC(=O)C3(c4ccc5c(c4)OC(F)(F)O5)CC3)c(F)cc2n1C[C@@H](O)CO [Compound 311]
> 5.70	> 100	6.55	102	–	–	–	CC(C)(C)c1cc2c(C#N)c(NC(=O)C3(c4ccc5c(c4)OC(F)(F)O5)CC3)ccc2[nH]1 [Compound 313]
> 5.70	> 100	6.57	106	–	–	–	CC(C)(CO)c1cc2cc(NC(=O)C3(c4ccc5c(c4)OC(F)(F)O5)CC3)c(F)cc2n1C[C@@H](O)CO [Compound 315]
> 5.70	> 100	7.18	132	–	–	–	CC(C)(C)c1cc2cc(NC(=O)C3(c4ccc5c(c4)OCO5)CC3)c(F)cc2n1C[C@@H](O)CO [Compound 318]
> 5.70	> 100	7.41	126	–	–	–	COc1ccc(C2(C(=O)Nc3ccc4c(c3)cc(C(C)(C)C)n4C[C@@H](O)CO)CC2(C)C)cc1 (stereo partly shown) [Compound 319]
5.30 to 5.70	25 to 100	5.37	94	–	–	–	CC(C)(CO)c1cc2cc(NC(=O)C3(c4ccc5c(c4)OC(F)(F)O5)CC3)c(F)cc2[nH]1 [Compound 320]
–	–	–	–	–	–	< 0.05	CC(C)(C)c1cc(C(C)(C)C)c(NC(=O)c2c[nH]c3ccccc3c2=O)cc1O [Compound B, N-(2,4-di-tert-butyl-5-hydroxyphenyl)-4-oxo-1,4-dihydroquinoline-3-carboxamide]
